Reference: ChEMBL document CHEMBL1128773, “Synthesis and pharmacological profile of FCE 28654: A water-soluble and injectable ACAT inhibitor” (Bioorg Med Chem Lett, 1995)

Tests used:
Rattus norvegicus [1] = assay: Effect of single oral administration of 15 mg/kg of compound on phospholipids of hypercholesterolemic rats; format: functional, organism-based; set-up: dose 15 mg/kg
[2] = molecular target: T1, Acyl-CoA:cholesterol acyltransferase (Oryctolagus cuniculus, UniProt Q95214); assay: Inhibitory activity against acyl-CoA: cholesterol acyltransferase (ACAT) in microsomes from cholesterol-fed rabbit thoracic aorta
T1 sequence (Q95214 whole entry): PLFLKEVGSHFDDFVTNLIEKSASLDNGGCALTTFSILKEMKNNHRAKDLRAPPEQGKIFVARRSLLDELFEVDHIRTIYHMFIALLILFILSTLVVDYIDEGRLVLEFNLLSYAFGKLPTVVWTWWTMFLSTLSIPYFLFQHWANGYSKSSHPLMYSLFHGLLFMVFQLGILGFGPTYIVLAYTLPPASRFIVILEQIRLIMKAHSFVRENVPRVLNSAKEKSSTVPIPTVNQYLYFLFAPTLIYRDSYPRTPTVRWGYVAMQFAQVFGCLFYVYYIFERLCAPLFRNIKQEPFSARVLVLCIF

Rattus norvegicus [3] = assay: Effect of single oral administration of 15 mg/kg of compound on cholesterol esters of hypercholesterolemic rats; format: functional, organism-based; set-up: dose 15 mg/kg
Rattus norvegicus [4] = assay: Effect of single oral administration of 15 mg/kg of compound on free cholesterol of hypercholesterolemic rats; format: functional, organism-based; set-up: dose 15 mg/kg
[5] = molecular target: T1, Acyl-CoA:cholesterol acyltransferase; assay: Inhibitory activity against acyl-CoA: cholesterol acyltransferase (ACAT) in microsomes from cholesterol-fed rabbit intestinal mucosa
[6] = molecular target: T2, Sterol O-acyltransferase 1 (Rattus norvegicus) (UniProt O70536); assay: (§1) Inhibition of microsomal acyl-CoA: cholesterol acyltransferase in the presence of plasma from rats administered orally with 100 mg/kg of the compound; pmoles [14C]-Cholesteryl oleate formed / mg protein / min incubation; format: organism-based; set-up: dose 100 mg/kg
T2 sequence (whole entry): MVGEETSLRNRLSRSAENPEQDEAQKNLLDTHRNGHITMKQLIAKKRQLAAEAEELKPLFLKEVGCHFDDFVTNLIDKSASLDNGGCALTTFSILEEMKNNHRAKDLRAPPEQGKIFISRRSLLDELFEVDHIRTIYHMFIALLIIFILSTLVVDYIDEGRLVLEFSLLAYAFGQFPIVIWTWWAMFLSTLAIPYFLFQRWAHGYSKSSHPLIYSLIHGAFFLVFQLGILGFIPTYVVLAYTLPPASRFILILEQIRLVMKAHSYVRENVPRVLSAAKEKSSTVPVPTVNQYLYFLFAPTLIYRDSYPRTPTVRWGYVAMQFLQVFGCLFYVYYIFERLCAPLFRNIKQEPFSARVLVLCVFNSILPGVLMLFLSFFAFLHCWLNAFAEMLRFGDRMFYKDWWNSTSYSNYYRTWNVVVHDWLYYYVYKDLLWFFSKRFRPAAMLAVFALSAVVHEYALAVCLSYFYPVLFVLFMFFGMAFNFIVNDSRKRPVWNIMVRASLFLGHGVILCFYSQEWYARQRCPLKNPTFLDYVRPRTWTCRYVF

Rattus norvegicus [7] = assay: Effect of single oral administration of 15 mg/kg of compound on triglycerides of hypercholesterolemic rats; format: functional, organism-based; set-up: dose 15 mg/kg
Mus musculus [8] = assay: Effect of single oral administration of 10 mg/kg of compound on phospholipids of hypercholesterolemic mice; format: functional, organism-based; set-up: dose 10 mg/kg
[9] = molecular target: T2, Sterol O-acyltransferase 1 (Rattus norvegicus); assay: as §1; format: functional, organism-based; set-up: dose 100 mg/kg
Rattus norvegicus [10] = assay: Effect of single oral administration of 2 mg/kg of compound on cholesterol esters of hypercholesterolemic rats; format: functional, organism-based; set-up: dose 2 mg/kg
Rattus norvegicus [11] = assay: Effect of single oral administration of 2 mg/kg of compound on triglycerides of hypercholesterolemic rats; format: functional, organism-based; set-up: dose 2 mg/kg
Mus musculus [12] = assay: Effect of single oral administration of 10 mg/kg of compound on free cholesterol of hypercholesterolemic mice; format: functional, organism-based; set-up: dose 10 mg/kg
[13] = Ratio of effect of single iv administration of compound at dose 10 mg/kg on liver free cholesterol/cholesterol esters of hypercholesterolemic mice; format: functional
Mus musculus [14] = assay: Effect of single oral administration of 10 mg/kg of compound on triglycerides of hypercholesterolemic mice; format: functional, organism-based; set-up: dose 10 mg/kg
[15] = Ratio of effect of single iv administration of compound at dose 2 mg/kg on liver free cholesterol/cholesterol esters of hypercholesterolemic rats; format: functional
[16] = Ratio of effect of single oral administration of 15 mg/kg of compound on liver free cholesterol/cholesterol esters of hypercholesterolemic rats; format: functional
Mus musculus [17] = assay: Effect of single oral administration of 10 mg/kg of compound on cholesterol esters of hypercholesterolemic mice; format: functional, organism-based; set-up: dose 10 mg/kg
Rattus norvegicus [18] = assay: Effect of single oral administration of 2 mg/kg of compound on free cholesterol of hypercholesterolemic rats; format: functional, organism-based; set-up: dose 2 mg/kg
Rattus norvegicus [19] = assay: Effect of single oral administration of 2 mg/kg of compound on phospholipids of hypercholesterolemic rats; format: functional, organism-based; set-up: dose 2 mg/kg

Structure (SMILES)	Plasma lipids (Rattus norvegicus [1]) [mg/dL]	IC50 [2] [nM]	Plasma lipids (Rattus norvegicus [3]) [mg/dL]	Plasma lipids (Rattus norvegicus [4]) [mg/dL]	IC50 [5] [nM]	Activity [6]	Plasma lipids (Rattus norvegicus [7]) [mg/dL]	Plasma lipids (Mus musculus [8]) [mg/dL]	Activity [9]	Plasma lipids (Rattus norvegicus [10]) [mg/dL]	Plasma lipids (Rattus norvegicus [11]) [mg/dL]	Plasma lipids (Mus musculus [12]) [mg/dL]	Ratio [13]	Plasma lipids (Mus musculus [14]) [mg/dL]	Ratio [15]	Ratio [16]	Plasma lipids (Mus musculus [17]) [mg/dL]	Plasma lipids (Rattus norvegicus [18]) [mg/dL]	Plasma lipids (Rattus norvegicus [19]) [mg/dL]
CC(C)c1cccc(C(C)C)c1NC(=O)NCC1(c2ccccc2)O[C@H](C)[C@@H](C)O1	77	24.2	57	18	27	286	76												
CC(C)c1cccc(C(C)C)c1NC(=O)NCC1(c2ccc(OP(=O)(O)O)cc2)O[C@H](C)[C@@H](C)O1	84	2550	73	28	1080		98	142	148	134	126	26	0.316	71	0.188	0.38	79	39	138
CC(C)c1cccc(C(C)C)c1NC(=O)NCC1(c2ccc(O)cc2)O[C@H](C)[C@@H](C)O1	96		75	33			126												
